The values below come from patent publication US20260223848A1, “METHOD OF INCREASING SUGAR PRODUCTION FROM SUGARCANE” (CORTEVA AGRISCIENCE LLC, priority 2021, published 2026).

Each structure is given as a SMILES string.

What all share (type): in vivo
Assay [1] has as its system sugarcane. As to the kind of experiment: Sugarcane ripening field studies, florpyrauxifen-benzyl and haloxyfop-P-methyl. The conditions noted are these: for ripening performance: versus the standards trinexapac and sulfometuron.
Assay [2] deals with sugarcane. The assay can be described thus: Sugarcane ripening field studies, halauxifen-methyl plus haloxyfop-P-methyl. The conditions noted are these: six field studies, 30 days after application, rate g ai/ha: halauxifen-methyl 2.16, mixture 27 + 2.16, haloxyfop-P-methyl 27, sulfometuron 15, trinexapac 250; for Gain Fiber: untreated 0.5; for Gain POL: untreated 2.7; for Gain Purity: untreated 6.8; for Gain TRS: untreated 23.4.

In the next assay the test system is ratoon sugarcane. The assay can be described thus: Ratoon sugarcane control field studies. The conditions noted are these: 2160 g ai/ha, post application, 4 to 6 leaves, 50 to 60 cm. Here is the method: In order to study the activity of Haloxyfop-P-methyl as possible herbicide for ratoon sugarcane control, field studies were carried out. Haloxyfop-P-methyl was tested at 124; 248; 373; 620 and 1240 g ai/ha plus mineral oil at 0.5% v/v and compared to key standard, as glyphosate (Glizmax Prime®) at 2160 g ae/ha. Trials were sprayed postemergence with 4 to 6 leaves or 50 to 60 cm of ratoon sugarcane regrowth and assessed percentage of control at 14; 30; 45 and 60 days after application (DAA).

The mark [3] stands for this setting: 30 days after application, rate g ai/ha: haloxyfop-P-methyl 27, florpyrauxifen-benzyl 2.2, mixture 27 + 2.2, sulfometuron 15, trinexapac 250, untreated 0.6.
[4] abbreviates: 30 days after application, rate g ai/ha: haloxyfop-P-methyl 27, florpyrauxifen-benzyl 2.2, mixture 27 + 2.2, sulfometuron 15, trinexapac 250, untreated 2.8.
[5] abbreviates: 30 days after application, rate g ai/ha: haloxyfop-P-methyl 27, florpyrauxifen-benzyl 2.2, mixture 27 + 2.2, sulfometuron 15, trinexapac 250, untreated 7.2.
The mark [6] stands for this setting: 30 days after application, rate g ai/ha: haloxyfop-P-methyl 27, florpyrauxifen-benzyl 2.2, mixture 27 + 2.2, sulfometuron 15, trinexapac 250, untreated 25.2.
The mark [7] stands for this setting: 45 days after application, rate g ai/ha: haloxyfop-P-methyl 27, florpyrauxifen-benzyl 2.2, mixture 27 + 2.2, sulfometuron 15, trinexapac 250, untreated 1.2.
The mark [8] stands for this setting: 45 days after application, rate g ai/ha: haloxyfop-P-methyl 27, florpyrauxifen-benzyl 2.2, mixture 27 + 2.2, sulfometuron 15, trinexapac 250, untreated 4.2.
Setting [9] is: 45 days after application, rate g ai/ha: haloxyfop-P-methyl 27, florpyrauxifen-benzyl 2.2, mixture 27 + 2.2, sulfometuron 15, trinexapac 250, untreated 7.7.
Setting [10] is: 45 days after application, rate g ai/ha: haloxyfop-P-methyl 27, florpyrauxifen-benzyl 2.2, mixture 27 + 2.2, sulfometuron 15, trinexapac 250, untreated 38.4.
[11] abbreviates: single application 50 L/ha 60 days before harvest, 30 DAA, rate g ai/ha: florpyrauxifen-benzyl 2.2, sulfometuron 15, trinexapac 250, untreated 2.8.
[12] abbreviates: single application 50 L/ha 60 days before harvest, 30 DAA, rate g ai/ha: florpyrauxifen-benzyl 2.2, sulfometuron 15, trinexapac 250, untreated 7.2.
[13] abbreviates: single application 50 L/ha 60 days before harvest, 30 DAA, rate g ai/ha: florpyrauxifen-benzyl 2.2, sulfometuron 15, trinexapac 250, untreated 25.2.
Where [14] appears, read: single application 50 L/ha 60 days before harvest, 45 DAA, rate g ai/ha: florpyrauxifen-benzyl 2.2, sulfometuron 15, trinexapac 250, untreated 4.2.
Where [15] appears, read: single application 50 L/ha 60 days before harvest, 45 DAA, rate g ai/ha: florpyrauxifen-benzyl 2.2, sulfometuron 15, trinexapac 250, untreated 7.7.
[16] abbreviates: single application 50 L/ha 60 days before harvest, 45 DAA, rate g ai/ha: florpyrauxifen-benzyl 2.2, sulfometuron 15, trinexapac 250, untreated 38.4.

`COC(=O)c1ccccc1S(=O)(=O)NC(=O)Nc1nc(C)cc(C)n1` [Sulfometuron, sulfometuron-methyl]: the “Gain Fiber” value was found to be 0.6% in the assay on sugarcane [1] (setting [3]), 0.6% with sugarcane [1] (setting [7]) and 0.1% in the assay with sugarcane [2]. The “Gain POL” value is listed as 2.4% in the assay with sugarcane [1] (setting [4]); 3.6% in the assay with sugarcane [1] (setting [8]); 2.4% in the assay with sugarcane [1] (setting [11]); 3.6% with sugarcane [1] (setting [14]); 1.9% in the assay with sugarcane [2]. Moreover, the “Gain Purity” value worked out at 6.5% with sugarcane [1] (setting [5]); 10.9% in the assay with sugarcane [1] (setting [9]); 6.5% in the assay on sugarcane [1] (setting [12]); 10.9% with sugarcane [1] (setting [15]); 1.9% in the assay with sugarcane [2]. In addition, the “Gain TRS” value with sugarcane [1] (setting [6]) worked out at 21.3 kg/ton; in the assay with sugarcane [1] (setting [10]), 31.4 kg/ton; in the assay with sugarcane [1] (setting [13]), 21.3 kg/ton; in the assay with sugarcane [1] (setting [16]), 31.4 kg/ton; in the assay with sugarcane [2], 15.9 kg/ton.
Take `CCOC(=O)C1CC(=O)C(=C(O)C2CC2)C(=O)C1` (stereo not drawn) [Trinexapac, trinexapac-ethyl]: the “Gain Fiber” value with sugarcane [1] (setting [3]) is listed as 0.4%; with sugarcane [1] (setting [7]) it was 0.8%; in the assay with sugarcane [2] it was 0.4%. Moreover, the “Gain POL” value with sugarcane [1] (setting [4]) was determined as 2.9%; in the assay on sugarcane [1] (setting [8]) it was 3.8%; in the assay on sugarcane [1] (setting [11]), 2.9%; with sugarcane [1] (setting [14]), 3.8%; in the assay on sugarcane [2], 2.5%. Besides, the “Gain Purity” value in the assay with sugarcane [1] (setting [5]) is listed as 6.8%; with sugarcane [1] (setting [9]), 5.8%; with sugarcane [1] (setting [12]) it was 6.8%; with sugarcane [1] (setting [15]) it was 5.8%; in the assay on sugarcane [2], 5.8%. For the same compound, the “Gain TRS” value with sugarcane [1] (setting [6]) was found to be 25.8 kg/ton; in the assay with sugarcane [1] (setting [10]) it was 34.9 kg/ton; with sugarcane [1] (setting [13]), 25.0 kg/ton; with sugarcane [1] (setting [16]), 34.9 kg/ton; in the assay on sugarcane [2] it was 21.8 kg/ton.
As for `O=C(O)CNCP(=O)(O)O` [Glyphosate, glyphosate], the “% Control” value was found to be 84.5% with ratoon sugarcane (14 DAA), 89.3% in the assay with ratoon sugarcane (30 DAA), 95.7% with ratoon sugarcane (45 DAA) and 96.0% in the assay on ratoon sugarcane (60 DAA).
With `COC(=O)c1nc(-c2ccc(Cl)c(OC)c2F)cc(N)c1Cl` [Halauxifen-methyl, halauxifen-methyl], in the assay on sugarcane [2], the “Gain Fiber” value is recorded as 0.5%, the “Gain POL” value is listed as 3%, the “Gain Purity” value is recorded as 7.1% and the “Gain TRS” value came out at 25.4 kg/ton.
Take `COc1c(Cl)ccc(-c2nc(C(=O)OCc3ccccc3)c(Cl)c(N)c2F)c1F` [Florpyrauxifen-benzyl, florpyrauxifen-benzyl]: the “Gain Fiber” value in the assay on sugarcane [1] (setting [3]) was 0.5%; in the assay on sugarcane [1] (setting [7]), 1.5%. Besides, the “Gain POL” value in the assay with sugarcane [1] (setting [4]) was found to be 2.6%; in the assay on sugarcane [1] (setting [8]), 4.9%; with sugarcane [1] (setting [11]) it was 2.6%; in the assay on sugarcane [1] (setting [14]), 4.9%. The “Gain Purity” value was 7.5% in the assay on sugarcane [1] (setting [5]), 10.3% in the assay on sugarcane [1] (setting [9]), 7.5% with sugarcane [1] (setting [12]) and 10.3% with sugarcane [1] (setting [15]). Further, the “Gain TRS” value is given as 23.0 kg/ton with sugarcane [1] (setting [6]), 44.0 kg/ton in the assay with sugarcane [1] (setting [10]), 23.0 kg/ton in the assay with sugarcane [1] (setting [13]) and 44.0 kg/ton with sugarcane [1] (setting [16]). Also, the ripening performance entry with sugarcane [1] (at 30 DAA) was “comparable to the standards trinexapac and sulfometuron”; in the assay on sugarcane [1] (at 45 DAA) it was “unexpectedly superior to the standards”.
